According to US10913772B2, “Peptide for preventing or treating inflammatory diseases and use thereof” (KINE SCIENCES Co., Ltd., priority 2016, dated 2021):
“And” between values parts separate entries of the source, which are not always exact repeats. Identical values can stand only once. No end group written: not given here.

Legend:
[1] = Evaluation of toxicity: mortality and change in body weight of mouse; assay type: in vivo; settings: for Body weight: i.p., individual mice
Experimental: In Example 3, in order to confirm the toxicity of the peptide of the present invention, the RGD dimer was intraperitoneally administered to mouse at various concentrations (0.1 μmole, 1 μmole, and 10 μmole), and then the mortality and a change in body weight of each mouse were measured. On the other hand, as a control, a non-administration group (Normal) and a PBS-treated group (PBS) were used.

[2] = test system: collagen-induced arthritis (CIA) mouse model; experiment: Arthritis progression index in collagen-induced arthritis mouse model; assay type: in vivo, mouse (DBA/1J); parameters: key: 0-4 per leg, summed over four legs (0-16), mean of two observers; settings: Table 3, methotrexate 1 mg/kg
Experimental: In Example 2, using a collagen-induced arthritis mouse model in the following document, a therapeutic effect of a RGD dimer for a representative inflammatory disease, rheumatoid arthritis was confirmed (Nat Protoc. 2007; 2(5):1269-75.).
A collagen-induced arthritis (CIA) mouse model was prepared as follows, as an autoimmune disease-based arthritis model with characteristics similar to human rheumatoid arthritis.
First, a bovine type II collagen (Chondrex Corporation, USA) and a Freund's complete adjuvant (Chondrex Corporation, USA) were mixed at a ratio of 1:1 and emulsified, and then 50 μl of the emulsified collagen solution was injected intradermally into the tail of a 6-week-old DBA/1J mouse to induce primary immunization. At two weeks after the primary immunization, the bovine type II collagen and the Freund's complete adjuvant were mixed at a ratio of 1:1 and emulsified, and then 50 μl of the emulsified collagen solution was injected intradermally into the tail of the mouse again to induce secondary immunization (boosting).
After the secondary immunization, from the next day, the peptide of the present invention ([…] (1 μmole)) was administered intraperitoneally three times a week and a PBS-treated group was used as a control (Vehicle control). The preparation process of the collagen-induced arthritis mouse model and the administration time of the peptide were schematically illustrated in FIG. 1.
In order to investigate the development of arthritis progression according to the peptide treatment of the present invention, the deepening degree of arthritis with time was measured by evaluating an arthritis progression index. Two observers who were unaware of the specific experimental conditions evaluated progression of arthritis three times a week. In this case, the arthritis progression index was evaluated by 0 to 4 scores per leg according to an arthritis progression evaluation standard by Rossoliniec and the like in Table 1 below to be represented by a total of 0 to 16 scores (a sum of four legs), and thereafter, two observers calculated an average value of the evaluated results to digitize the severity of arthritis.
In order to confirm the efficacy for each treatment concentration of the peptide according to the present invention, by using the same method as Example 2-2, an arthritis therapeutic effect according to the peptide treatment at various concentrations (0.1 μmole, 1 μmole, and 10 μmole) was evaluated by the arthritis progression index.
Methotrexate (MTX), one of drugs which are used as arthritis therapeutic agents in a current clinical practice, had excellent anti-inflammatory and arthritis therapeutic effects as an immunodepressant, but may have side effects such as toxicity to normal cells, oral ulcer, alopecia, interstitial pneumonia, bone marrow suppression, and the like. As a result, the methotrexate is known as a drug that needs to pay close attention after medication with sufficient medication counseling. As a result, the arthritis therapeutic effect according to the peptide treatment at various concentrations was compared with that of the case of treating methotrexate (1 mg/kg).

## RDGRDG [RDG dimer, RDGRDG]
[1]; 0.1 μmole, 1 μmole or 10 μmole, intraperitoneally
  mortality of the mouse: not observed
[1]; 10 umole, day 17
  Body weight: 23.74 g and 20.75 g and 18.48 g
[1]; 10 umole, day 21
  Body weight: 23.8 g and 21.9 g and 20.5 g
[1]; 10 umole, day 24
  Body weight: 24.2 g and 22 g and 20.1 g
[1]; 10 umole, day 27
  Body weight: 23.8 g and 21.6 g and 20.5 g
[1]; 10 umole, day 31
  Body weight: 23.9 g and 22 g
[1]; 10 umole, day 34
  Body weight: 24.8 g and 22.3 g
[1]; all the concentrations (0.1, 1 and 10 μmole), intraperitoneally
  difference in body weight from the control: did not have a large difference
[1]; first group printed 1 umole, day 17
  Body weight: 21.65 g and 24.51 g and 18.25 g and 21.88 g and 22.3 g and 21.96 g and 18.84 g
[1]; first group printed 1 umole, day 21
  Body weight: 21.8 g and 24.5 g and 18.4 g and 21.5 g and 22 g (2×) and 19.6 g
[1]; first group printed 1 umole, day 24
  Body weight: 21.8 g and 24.9 g and 18.2 g and 22.4 g and 22.8 g and 21.3 g and 20.6 g
[1]; first group printed 1 umole, day 27
  Body weight: 22.2 g and 25 g and 18.1 g and 22.7 g and 22.9 g and 21.3 g and 20.5 g
[1]; first group printed 1 umole, day 31
  Body weight: 22.4 g and 25.3 g and 18.8 g and 22.3 g and 22.6 g and 21.2 g and 20.7 g
[1]; first group printed 1 umole, day 34
  Body weight: 23.1 g (2×) and 26.1 g and 19 g and 23 g and 22.6 g and 21.8 g
[1]; second group printed 1 umole, day 17
  Body weight: 22.7 g (2×) and 21.3 g and 18.96 g and 20.63 g and 20.61 g and 21.07 g
[1]; second group printed 1 umole, day 21
  Body weight: 22.3 g and 22.4 g and 19.6 g and 20.6 g and 21.1 g and 21.3 g and 22.6 g
[1]; second group printed 1 umole, day 24
  Body weight: 23.9 g and 22.2 g and 20 g and 20.8 g and 21.4 g and 21.7 g and 23.2 g
[1]; second group printed 1 umole, day 27
  Body weight: 24.4 g and 22.3 g and 20.1 g and 21.2 g and 21.3 g and 21.7 g and 23.3 g
[1]; second group printed 1 umole, day 31
  Body weight: 22.6 g and 22.7 g and 20.2 g and 20.1 g and 21.3 g and 22.2 g and 23.4 g
[1]; second group printed 1 umole, day 34
  Body weight: 23 g and 23.6 g and 20.5 g and 18.6 g and 20.6 g and 22.5 g and 24.2 g

## CN(Cc1cnc2nc(N)nc(N)c2n1)c1ccc(C(=O)N[C@@H](CCC(=O)O)C(=O)O)cc1 [MTX, methotrexate]
[2]; day 20
  arthritis progression index: 0.8
[2]; day 22
  arthritis progression index: 0.8
[2]; day 24
  arthritis progression index: 1.0
[2]; day 27
  arthritis progression index: 1.2
[2]; day 29
  arthritis progression index: 1.4
[2]; day 31
  arthritis progression index: 1.8
[2]; day 34
  arthritis progression index: 1.8
[2]; day 36
  arthritis progression index: 3.2
